Tests used:
B. thuringiensis = settings: cited from earlier work
B. cereus = settings: cited from earlier work
B. anthrasis = settings: cited from earlier work
[1] = tested on: Bacillus thuringiensis ATCC 10792; assay type: cell-based
[2] = tested on: Bacillus anthrasis AMES-RIID and ANR-1; assay type: cell-based
[3] = tested on: Bacillus cereus ATCC 14579; assay type: cell-based

Compound	colony colour, B. thuringiensis (B. thuringiensis)	colony colour, B. cereus (B. cereus)	colony colour, B. anthrasis (B. anthrasis)	Bacillus thuringiensis ATCC 10792 Colonial Morphologies 48 hours [1]	Bacillus anthrasis AMES-RIID and ANR-1 Colonial Morphologies 48 hours [2]	Bacillus cereus ATCC 14579 Colonial Morphologies 48 hours [3]
O=P(O)(Oc1c[nH]c2ccc(Br)c(Cl)c12)OC1C(O)C(O)C(O)C(O)C1O (stereo not drawn) [5-bromo-4-chloro-3-indoxyl-myo-inositol-1-phosphate]	turquoise colonies	turquoise colonies	white colonies	–	–	–
Manganese chloride	–	–	–	turquoise colonies with a narrow rim	cream color colony with a blue dot in the center	turquoise colonies with a narrow rim

Reference: patent US20040005652A1 (priority 2002, published 2004)
